# Activity calls are given as the source filed them.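 Rule for the calls: active = EC50 at or below a set limit for turning on the RORA orphan receptor reporter; inactive = the rest.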
# Molecular target: Nuclear receptor ROR-alpha (Homo sapiens) (UniProt P35398)
# Assay: activators of RORA ligand-binding domain fusion – cell-based, CHO-K1, Gal4-RORA LBD, luciferase luminescence, counter-screen for SF-1 activator project, dose response (AID 675)
# Details: CHO-K1 RORA luciferase reporter, luminescence activation
# Chain of Nuclear receptor ROR-alpha (Homo sapiens) (P35398 whole entry, looked up, the tested form may be a part): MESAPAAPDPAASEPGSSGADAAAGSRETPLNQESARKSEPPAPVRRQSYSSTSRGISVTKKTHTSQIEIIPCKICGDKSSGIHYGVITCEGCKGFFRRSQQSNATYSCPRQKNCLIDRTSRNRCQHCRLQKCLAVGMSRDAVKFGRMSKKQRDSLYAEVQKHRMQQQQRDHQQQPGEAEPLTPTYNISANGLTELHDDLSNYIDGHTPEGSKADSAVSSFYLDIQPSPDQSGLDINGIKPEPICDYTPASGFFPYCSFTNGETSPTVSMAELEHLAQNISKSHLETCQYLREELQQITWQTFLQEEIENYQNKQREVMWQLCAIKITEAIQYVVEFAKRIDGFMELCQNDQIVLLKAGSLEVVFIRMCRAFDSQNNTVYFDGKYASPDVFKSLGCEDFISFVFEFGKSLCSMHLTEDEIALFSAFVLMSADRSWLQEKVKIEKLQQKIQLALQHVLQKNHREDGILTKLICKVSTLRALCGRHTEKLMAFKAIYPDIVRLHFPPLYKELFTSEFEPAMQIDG
row,Structure (SMILES),EC50
1,COc1cc(C2C3C(=O)N(c4ccccc4)C(=O)C3ON2c2ccccc2)ccc1O (stereo not drawn),> 33 µM (inactive)
2,CC1(C)CC(=O)C(C=Nc2ccccc2)=C(O)C1,> 99 µM (inactive)
3,COc1ccc(C(=O)/C=C/Nc2cccc(C)n2)cc1OC,0.749 µM
4,C/C(N)=C(/C#N)C(=O)CSc1ccc2c(c1)OCCO2,1.17 µM
5,Cc1ccc(C2/C(=C(\O)c3cnn(-c4ccccc4)c3C)C(=O)C(=O)N2CCN(C)C)o1 (stereo not drawn),4.13 µM

# Continued, values first:
row,EC50,Structure (SMILES)
1,9.88 µM,CC1(C)CC(=O)C(C=Nc2ccc3[nH]ncc3c2)=C(O)C1
2,1.61 µM,COC(=O)c1ccc(/C(O)=C(\C#N)c2nc3ccccc3s2)cc1
3,> 99 µM (inactive),O=C1CCCC(O)=C1C=Nc1ccc(O)cc1
